Laboratory results from ChEMBL document CHEMBL2073747, “Methadone inhibits rhodamine123 transport in Caco-2 cells” (Drug Metab Dispos, 2001).

Assays:
[1] = target: T1, ATP-dependent translocase ABCB1 (Homo sapiens, UniProt P08183); experiment: TP_TRANSPORTER: inhibition of Rhodamine 123 transepithelial transport (basal to apical) (Rhodamine 123: 5 uM) in Caco-2 cells; assay type: functional, cell-based
[2] = target: T1, ATP-dependent translocase ABCB1; experiment: TP_TRANSPORTER: transepithelial transport (basal to apical) in Caco-2 cells; assay type: functional, cell-based

T1 sequence (P08183 whole entry): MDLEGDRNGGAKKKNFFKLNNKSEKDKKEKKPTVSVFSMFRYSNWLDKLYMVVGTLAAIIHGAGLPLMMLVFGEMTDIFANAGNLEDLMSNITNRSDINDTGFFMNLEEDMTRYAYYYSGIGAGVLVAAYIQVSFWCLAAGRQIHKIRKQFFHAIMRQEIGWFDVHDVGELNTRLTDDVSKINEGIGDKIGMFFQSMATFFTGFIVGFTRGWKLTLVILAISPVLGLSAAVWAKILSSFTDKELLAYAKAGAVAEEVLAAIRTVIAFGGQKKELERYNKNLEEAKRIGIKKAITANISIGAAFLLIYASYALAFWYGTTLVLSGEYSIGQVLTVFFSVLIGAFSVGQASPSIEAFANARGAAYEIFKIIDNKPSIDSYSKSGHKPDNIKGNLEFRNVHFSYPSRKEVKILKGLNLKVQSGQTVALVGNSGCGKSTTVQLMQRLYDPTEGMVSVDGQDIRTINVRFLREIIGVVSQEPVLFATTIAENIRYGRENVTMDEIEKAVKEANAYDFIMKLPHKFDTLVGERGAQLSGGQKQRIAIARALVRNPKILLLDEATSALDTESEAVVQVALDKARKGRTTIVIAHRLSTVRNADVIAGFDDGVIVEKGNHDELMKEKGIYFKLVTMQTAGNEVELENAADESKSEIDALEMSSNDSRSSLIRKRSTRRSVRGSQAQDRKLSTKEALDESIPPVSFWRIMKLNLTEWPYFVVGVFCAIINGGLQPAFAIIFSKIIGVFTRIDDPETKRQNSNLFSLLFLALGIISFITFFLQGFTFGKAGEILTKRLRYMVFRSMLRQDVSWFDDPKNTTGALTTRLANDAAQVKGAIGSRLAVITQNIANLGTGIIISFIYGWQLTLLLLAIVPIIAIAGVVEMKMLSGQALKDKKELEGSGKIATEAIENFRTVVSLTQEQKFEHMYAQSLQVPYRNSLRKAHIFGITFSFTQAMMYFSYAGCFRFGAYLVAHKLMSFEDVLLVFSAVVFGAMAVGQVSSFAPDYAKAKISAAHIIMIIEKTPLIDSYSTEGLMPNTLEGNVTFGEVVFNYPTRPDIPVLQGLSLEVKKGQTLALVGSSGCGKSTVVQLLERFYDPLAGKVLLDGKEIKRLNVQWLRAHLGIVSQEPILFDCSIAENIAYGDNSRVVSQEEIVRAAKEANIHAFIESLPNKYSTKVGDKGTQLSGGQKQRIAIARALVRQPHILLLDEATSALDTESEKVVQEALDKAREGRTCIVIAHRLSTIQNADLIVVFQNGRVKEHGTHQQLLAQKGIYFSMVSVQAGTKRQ

With `CCC(=O)C(CC(C)N(C)C)(c1ccccc1)c1ccccc1` (configuration not stated) [METHADONE] the IC50 [1] was 7.5 µM and the Activity [2] was “is not a substrate [-]”.
